Results as given in EP0641564A1, “OPTICALLY ACTIVE CONDENSED PYRAZOLE COMPOUND FOR USE IN TREATING THROMBOCYTOPENIA AND ERYTHROPENIA” (YOSHITOMI PHARMACEUTICAL INDUSTRIES, LTD., priority 1992, dated 1993).

Assays:
[1] = tested on: rats administered with anti-tumor drug; assay: Promoting action on recovery of decreased platelet count in rats administered with anti-tumor drug (nimustine hydrochloride); type: in vivo, SD rats; conditions: 1.0 mg/kg i.v. on day 8, 9, 10 and 14 after initial nimustine hydrochloride
Experimental: Experimental Example 2 : Promoting action on recovery of decreased platelet count in rats administered with anti-tumor drug
An anti-tumor drug, nimustine hydrochloride, (30 mg/kg) was intravenously administered to SD rats (6 weeks old) and 15 mg/kg thereof was intravenously administered the next day. Compound A was intravenously administered for 4 days on day 8, day 9, day 10 and day 14 after the initial administration of nimustine hydrochloride. On certain days after the administration, heparinized blood was taken from the rat tail vein and platelet count was measured using an automatic cell counter. The experiment was done with 4-6 rats per group.

[2] = tested on: mice transplanted with bone marrow; assay: Promoting action on recovery of leukocyte count in mice transplanted with bone marrow; type: in vivo, ICR mice; conditions: for Leukocyte count: X-irradiation (8.0 Gy)+bone marrow transplantation (day 0, 7, 14); for Leukocyte count / Increase in leukocyte count: day 38; for Increase in leukocyte count: relative ratio of increased count to decreased count of bone marrow transplanted mice
Experimental: Experimental Example 8 : Promoting action on recovery of leukocyte count in mice transplanted with bone marrow
ICR mice (6-8 weeks old) were exposed to 8.0 Gy total body irradiation and 10⁷ bone marrow cells from the mice of the same species were transplanted to the mice. The bone marrow transplantation was performed three times on day 0, day 7 and day 14. Then, the compound of the present invention was intravenously administered for 14 consecutive days starting from the next day of the first bone marrow transplantation. On day 38 after the first bone marrow transplantation, blood was taken and leukocyte count was measured using an automatic cell counter. The experiment was done with 5 mice per group. The relative ratio of the increased leukocyte count to the decreased leukocyte count of the mice transplanted with bone marrow was calculated and expressed in percentage.

[3] = tested on: mice administered with cyclophosphamide; assay: Stimulating action on recovery of leukocyte count (cyclophosphamide-treated mice); type: in vivo, ICR mice; conditions: for Leukocyte count: cyclophosphamide 200 mg/kg i.p., day 4; for Increase in leukocyte count: relative ratio to count of mice administered with cyclophosphamide (=100)
Experimental: Experimental Example 7 : Stimulating action on recovery of leukocyte count
ICR mice (20-25 g body weight) were intraperitoneally administered with 200 mg/kg of cyclophosphamide and the compound of the present invention was intravenously administered for 3 days starting from the next day of the administration. On day 4 after the cyclophosphamide administration, the blood of the ICR mice was taken and leukocyte count was measured using Coulter counter. The relative ratio of the count to the peripheral leukocyte count of the mice administered with cyclophosphamide was calculated and expressed in percentage.

[4] = tested on: mice irradiated with X-rays; assay: Promoting action on recovery of erythrocyte count in mice irradiated with X-rays (preventive effects); type: in vivo, BALB/c mice; conditions: mean±SD
Experimental: Experimental Example 3 : Promoting action on recovery of erythrocyte count in mice irradiated with X-rays (preventive effects)
(§1) BALB/c mice (4-5 weeks old) were exposed to 4.0 Gy total body irradiation. Compound A was intravenously administered for 3 consecutive days starting from 3 days before and up to the previous day of the irradiation. On day 19 and day 22 after the X-ray irradiation, blood was taken from orbital vein plexus of mice and erythrocyte count was measured using an automatic cell counter. The experiment was done with 8 mice per group and the results are shown as mean value±standard deviation.

[5] = tested on: mice transplanted with bone marrow; assay: Promoting action on recovery of platelet count in mice transplanted with bone marrow; type: in vivo, ICR mice; conditions: day 11; for Platelet count: X-irradiation (8.0 Gy)+bone marrow transplantation; for Increase in platelet count: difference between untreated group and bone marrow transplanted group = 100%
Text: Experimental Example 1 : Promoting action on recovery of platelet count in mice transplanted with bone marrow
(§2) ICR mice (6-8 weeks old) were exposed to 8.0 Gy total body irradiation and 10⁷ bone marrow cells from the mice of the same species were transplanted to the mice. Then, Compound A or Compound B was intravenously administered for 9 consecutive days starting from the next day of the bone marrow transplantation. On day 11 after the bone marrow transplantation, heparinized blood was taken from the abdominal aorta of mice and platelet count was measured using an automatic cell counter. The experiment was done with 5 mice per group. The difference in platelet count between an untreated group and the bone marrow transplanted group was taken as 100%, based on which increase in the platelet count was calculated.

[6] = tested on: mice irradiated with X-rays; assay: Promoting action on recovery of erythrocyte count in mice irradiated with X-rays (therapeutic effects); type: in vivo, BALB/c mice; conditions: day 14, mean±SD
Experimental: Experimental Example 4 : Promoting action on recovery of erythrocyte count in mice irradiated with X-rays (therapeutic effects)
as §1, with “for 9” for “for 3”, “from” for “from 3 days before and up to”, “the next” for “the previous”, “the X-ray irradiation to 9 days thereafter.” for “the irradiation.”, “day 14” for “day 19 and day 22”, “with 6” for “with 8”

[7] = tested on: mice transplanted with bone marrow; assay: Promoting action on recovery of erythrocyte count in mice transplanted with bone marrow; type: in vivo, ICR mice; conditions: X-irradiation (8.0 Gy)+bone marrow transplantation, day 11
Text: Experimental Example 5 : Promoting action on recovery of erythrocyte count in mice transplanted with bone marrow
as §2, with “A” for “A or Compound B”, “erythrocyte” for “platelet”, “group.” for “group. The difference in platelet count between an untreated group and the bone marrow transplanted group was taken as 100%, based on which increase in the platelet count was calculated.”

[8] = tested on: rats; assay: Acute toxicity test; type: in vivo; conditions: orally administered to rats, dose of 1000 mg/kg
Experimental: Experimental Example 9 : Acute toxicity test
Compound A, Compound B or Compound C was orally administered to rats. As a result, no death case was found at a dose of 1000 mg/kg.

[9] = 0.01 mg/kg i.v. for 14 consecutive days
[10] = 0.1 mg/kg i.v. for 14 consecutive days
[11] = 0.01 mg/kg i.v. for 3 consecutive days before 4.0 Gy irradiation
[12] = 0.1 mg/kg i.v. for 3 consecutive days before 4.0 Gy irradiation
[13] = 1 mg/kg i.v. for 3 consecutive days before 4.0 Gy irradiation

## CC(CN(C)C)Oc1ccc(-c2nn(CC(=O)O)c3ncccc23)cc1 (stereo not drawn) [Comp. A, 3-[4-(2-dimethylamino-1-methylethoxy)phenyl]-1H-pyrazolo[3,4-b]pyridine-1-acetic acid]
[1]; day 25
  Platelet count day 25: 17.7±21.8 10⁴/mm³
[1]; day 44
  Platelet count day 44: 57.3±20.2 10⁴/mm³
[2]; [9]
  Leukocyte count: 65±7 10²/mm³
[2]; 0.01 mg/kg i.v.
  Increase in leukocyte count: 30%
[2]; [10]
  Leukocyte count: 75±5 10²/mm³
[2]; 0.1 mg/kg i.v.
  Increase in leukocyte count: 46%
[2]; 1 mg/kg i.v. for 14 consecutive days
  Leukocyte count: 81±4 10²/mm³
[2]; 1 mg/kg i.v.
  Increase in leukocyte count: 56%
[3]; 0.01 mg/kg i.v. for 3 days
  Leukocyte count: 18±8 10²/mm³
[3]; 0.01 mg/kg i.v.
  Increase in leukocyte count: 164%
[3]; 0.1 mg/kg i.v. for 3 days
  Leukocyte count: 25±6 10²/mm³
[3]; 0.1 mg/kg i.v.
  Increase in leukocyte count: 227%
[3]; 1 mg/kg i.v. for 3 days
  Leukocyte count: 30±6 10²/mm³
[3]; 1 mg/kg i.v.
  Increase in leukocyte count: 273%
[4]; [11]
  Erythrocyte count day 19: 835±102 10⁴/mm³
  Erythrocyte count day 22: 904±45 10⁴/mm³
[4]; [12]
  Erythrocyte count day 19: 837±118 10⁴/mm³
  Erythrocyte count day 22: 916±86 10⁴/mm³
[4]; [13]
  Erythrocyte count day 19: 856±118 10⁴/mm³
  Erythrocyte count day 22: 932±86 10⁴/mm³
[5]; Table 1, 0.01 mg/kg i.v. for 9 consecutive days
  Platelet count: 27.4±9.6 10⁴/mm³
[5]; Table 1, 0.01 mg/kg i.v.
  Increase in platelet count: 30%
[5]; Table 1, 0.03 mg/kg i.v. for 9 consecutive days
  Platelet count: 31.4±11.4 10⁴/mm³
[5]; Table 1, 0.03 mg/kg i.v.
  Increase in platelet count: 41%
[5]; Table 1, 0.1 mg/kg i.v. for 9 consecutive days
  Platelet count: 42.3±10.6 10⁴/mm³
[5]; Table 1, 0.1 mg/kg i.v.
  Increase in platelet count: 71%
[5]; Table 1, 0.3 mg/kg i.v. for 9 consecutive days
  Platelet count: 49.8±9.7 10⁴/mm³
[5]; Table 1, 0.3 mg/kg i.v.
  Increase in platelet count: 91%
[6]; 0.01 mg/kg i.v. for 9 consecutive days after 4.0 Gy irradiation
  Erythrocyte count: 535±98 10⁴/mm³
[6]; 0.1 mg/kg i.v. for 9 consecutive days after 4.0 Gy irradiation
  Erythrocyte count: 686±72 10⁴/mm³
[7]; 0.01 mg/kg i.v. for 9 consecutive days
  Erythrocyte count: 699±51 10⁴/mm³
[7]; 0.1 mg/kg i.v. for 9 consecutive days
  Erythrocyte count: 714±56 10⁴/mm³
[8]
  death cases (acute toxicity): no death case

## C[C@@H](CN(C)C)Oc1ccc(-c2nn(CC(=O)O)c3ncccc23)cc1 [Comp. B, (S)-3-[4-(2-dimethylamino-1-methylethoxy)phenyl]-1H-pyrazolo[3,4-b]pyridine-1-acetic acid]
[2]; [9]
  Leukocyte count: 76±10 10²/mm³
[2]; 0.01 mg/kg i.v.
  Increase in leukocyte count: 48%
[2]; [10]
  Leukocyte count: 89±6 10²/mm³
[2]; 0.1 mg/kg i.v.
  Increase in leukocyte count: 69%
[2]; bone marrow transplanted mice, comparison from Table 8
  strength of leukocyte count recovery effect relative to Compound A: about ten times stronger effect
[3]; 0.003 mg/kg i.v. for 3 days
  Leukocyte count: 19±5 10²/mm³
[3]; 0.003 mg/kg i.v.
  Increase in leukocyte count: 173%
[3]; 0.03 mg/kg i.v. for 3 days
  Leukocyte count: 27±5 10²/mm³
[3]; 0.03 mg/kg i.v.
  Increase in leukocyte count: 245%
[3]; 0.3 mg/kg i.v. for 3 days
  Leukocyte count: 30±6 10²/mm³
[3]; 0.3 mg/kg i.v.
  Increase in leukocyte count: 273%
[3]; cyclophosphamide-pretreated mice, comparison from Table 7
  strength of leukocyte count recovery effect relative to Compound A: about three times stronger effect
[5]; Table 2, 0.01 mg/kg i.v. for 9 consecutive days
  Platelet count: 45.9±6.7 10⁴/mm³
[5]; Table 2, 0.01 mg/kg i.v.
  Increase in platelet count: 65%
[5]; Table 2, 0.03 mg/kg i.v. for 9 consecutive days
  Platelet count: 54.8±13.6 10⁴/mm³
[5]; Table 2, 0.03 mg/kg i.v.
  Increase in platelet count: 81%
[8]
  death cases (acute toxicity): no death case

## CCOC(=O)Cn1nc(-c2ccc(O[C@@H](C)CN(C)C)cc2)c2cccnc21.Cl [Compound C, ethyl (S)-3-[4-(2-dimethylamino-1-methylethoxy)phenyl]-1H-pyrazolo[3,4-b]pyridine-1-acetate hydrochloride]
[8]
  death cases (acute toxicity): no death case
